Laboratory results reported in US7923446B2, “Biaryl sulfonamides and methods for using same” (Wyeth LLC, priority 2003, dated 2011).

Target: T1, purified full-length human recombinant aggrecanase-1 (rAgg1) (Homo sapiens, UniProt O75173)
T1 construct: purified full-length human recombinant aggrecanase-1
T1 sequence (O75173 213-837): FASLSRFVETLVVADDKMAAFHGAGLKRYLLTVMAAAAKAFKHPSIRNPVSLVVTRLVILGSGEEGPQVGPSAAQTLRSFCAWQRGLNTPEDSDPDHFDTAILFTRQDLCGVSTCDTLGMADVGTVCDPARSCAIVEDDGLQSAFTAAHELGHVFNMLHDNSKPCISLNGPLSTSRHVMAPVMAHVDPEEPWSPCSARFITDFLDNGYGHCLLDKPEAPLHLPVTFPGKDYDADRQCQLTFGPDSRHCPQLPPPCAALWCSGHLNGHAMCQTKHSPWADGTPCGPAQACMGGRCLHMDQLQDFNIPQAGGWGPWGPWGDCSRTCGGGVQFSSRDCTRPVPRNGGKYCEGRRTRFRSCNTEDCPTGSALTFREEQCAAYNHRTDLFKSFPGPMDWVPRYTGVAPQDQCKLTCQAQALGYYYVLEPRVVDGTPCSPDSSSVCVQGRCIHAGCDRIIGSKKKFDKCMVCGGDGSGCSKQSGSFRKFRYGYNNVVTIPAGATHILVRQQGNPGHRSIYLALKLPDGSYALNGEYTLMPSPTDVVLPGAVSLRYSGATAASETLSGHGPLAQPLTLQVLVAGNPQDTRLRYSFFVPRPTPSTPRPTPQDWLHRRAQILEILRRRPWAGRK
Assay: Aggrecanase-1 FRET Assay
Assay type: biochemical
Conditions: not given

| Compound | IC50 |
| --- | --- |
| CC(C)[C@@H](NS(=O)(=O)c1ccc(-c2ccc(OC(=O)Nc3ccc(Oc4ccccc4)cc3)cc2)cc1)C(=O)O [Example 6B, D-3-Methyl-2-[4′-(4-phenoxy-phenylcarbamoyloxy)-biphenyl-4-sulfonylamino]-butyric acid] | 600 nM |
| CC(C)[C@@H](NS(=O)(=O)c1ccc(-c2ccc(OC(=O)Nc3ccc4ccccc4c3)cc2)cc1)C(=O)O [Example 6C, D-3-Methyl-2-[4′-(naphthalen-2-ylcarbamoyloxy)-biphenyl-4-sulfonylamino]-butyric acid] | 1100 nM |
| CC(C)[C@@H](NS(=O)(=O)c1ccc(-c2ccc(OC(=O)Nc3cc4ccccc4o3)cc2)cc1)C(=O)O [Example 6S, N-[(4′-{[(1-benzofuran-2-ylamino)carbonyl]oxy}-1,1′-biphenyl-4-yl)sulfonyl]-D-valine] | 4500 nM |
| CC(C)[C@@H](NS(=O)(=O)c1ccc(-c2ccc(OC(=O)Nc3ccc(F)cc3)cc2)cc1)C(=O)O [Example 6A, 2-[4′-(4-Fluoro-phenylcarbamoyloxy)-biphenyl-4-sulfonylamino]-3-methyl-butyric acid] | 3600 nM |

Same assay, conditions: rAgg1 5 μg/ml, substrate Abz-[…]-Dap(Dnp) 25 μM, 30° C., pH 7.5; read-out: IC50

| IC50 | Compound |
| --- | --- |
| 16700 nM | COc1cc(COc2ccc(-c3ccc(S(=O)(=O)N[C@@H](C(=O)O)C(C)C)cc3)cc2OC)cc(OC)c1 [Example 11B, 2-[4′-(3,5-Dimethoxy-benzyloxy)-3′-methoxy-biphenyl-4-sulfonylamino]-3-methyl-butyric acid] |
| 400 nM | CC(=O)NCc1ccc(-c2ccc(S(=O)(=O)N[C@@H](C(=O)O)C(C)C)cc2)cc1 [Example 5A, D-2-[4′-(Acetylamino-methyl)-biphenyl-4-sulfonylamino]-3-methyl-butyric acid] |
| 67000 nM | CC(C)[C@@H](NS(=O)(=O)c1ccc(-c2ccc(O)cc2)cc1C(F)(F)F)C(=O)O [Example 12B, 2-(4′-Hydroxy-3-trifluoromethyl-biphenyl-4-sulfonylamino)-3-methyl-butyric acid] |
| 200000 nM | CC(C)[C@@H](NS(=O)(=O)c1ccc(-c2ccc(O)cc2)cc1OC(F)(F)F)C(=O)O [Example 12A, 2-(4′-Hydroxy-3-trifluoromethoxy-biphenyl-4-sulfonylamino)-3-methyl-butyric acid] |
| 90 nM | Cc1c(C(=O)Oc2ccc(-c3ccc(S(=O)(=O)N[C@@H](C(=O)O)C(C)C)cc3)cc2)oc2ccccc12 [Example 7A, D-3-Methyl-benzofuran-2-carboxylic acid 4′-(1-carboxy-2-methyl-propylsulfamoyl)-biphenyl-4-yl ester] |
| 8900 nM | COc1cc(-c2ccc(S(=O)(=O)N[C@@H](C(=O)O)C(C)C)cc2)ccc1OCc1ccc2ccccc2c1 [Example 11A, 3-Methyl-2-[4′-(naphthalen-2-ylmethoxy)-3′-methoxy-biphenyl-4-sulfonylamino]-butyric acid] |

The next lines start with the compound.

| Compound | IC50 |
| --- | --- |
| CC(C)[C@@H](NS(=O)(=O)c1ccc(-c2ccc(COc3nc4ccccc4s3)cc2)cc1)C(=O)O [Example 1F, 2-[4′-(Benzothiazol-2-yloxymethyl)-biphenyl-4-sulfonylamino]-3-methyl-butyric acid] | 1500 nM |
| Cc1c(COc2ccc(-c3ccc(S(=O)(=O)N[C@@H](C(=O)O)C(C)C)cc3)cc2)oc2ccccc12 [Example 2A, D-3-Methyl-2-[4′-(3-methyl-benzofuran-2-ylmethoxy)-biphenyl-4-sulfonylamino]-butyric acid] | 1000 nM |
| CC(C)[C@@H](NS(=O)(=O)c1ccc(-c2ccc(OCc3cc4ccccc4o3)cc2)cc1)C(=O)O [Example 2B, D-2-[4′-(Benzofuran-2-ylmethoxy)-biphenyl-4-sulfonylamino]-3-methyl-butyric acid] | 1500 nM |
| Cc1cc(COc2ccc(-c3ccc(S(=O)(=O)N[C@@H](C(=O)O)C(C)C)cc3)cc2)c2ccccc2n1 [Example 2K, D-3-Methyl-2-[4′-(2-methyl-quinolin-4-ylmethoxy)-biphenyl-4-sulfonylamino]-butyric acid] | 500 nM |
| Cc1cc(OCc2ccc(-c3ccc(S(=O)(=O)N[C@@H](C(=O)O)C(C)C)cc3)cc2)c2ccccc2n1 [Example 1D, D-3-Methyl-2-[4′-(2-methyl-quinolin-4-yloxymethyl)-biphenyl-4-sulfonylamino]-butyric acid] | 400 nM |
| CC(C)[C@@H](NS(=O)(=O)c1ccc(-c2ccc(OCc3ccc4ccccc4c3)cc2)cc1)C(=O)O [Example 2C, D-3-Methyl-2-[4′-(naphthalen-2-ylmethoxy)-biphenyl-4-sulfonylamino]-butyric acid] | 800 nM |
| CC(C)[C@@H](NS(=O)(=O)c1ccc(-c2ccc(COc3ccc4ccccc4n3)cc2)cc1)C(=O)O [Example 1E] | 600 nM |
| CC(C)[C@@H](NS(=O)(=O)c1ccc(-c2ccc(COc3ccc(C(F)(F)F)cn3)cc2)cc1)C(=O)O [Example 1B, 3-Methyl-2-[4-(5-trifluoromethyl-pyridin-2-yloxymethyl)-biphenyl-4-sulfonylamino]-butyric acid] | 800 nM |
| CC(C)[C@@H](NS(=O)(=O)c1ccc(-c2ccc(OCc3ccccc3)cc2)cc1)C(=O)O [Example 2D, D-2-(4′-Benzyloxy-biphenyl-4-sulfonylamino)-3-methyl-butyric acid] | 5500 nM |
| Cc1cc2ccccc2nc1OCc1ccc(-c2ccc(S(=O)(=O)N[C@@H](C(=O)O)C(C)C)cc2)cc1 [Example 1A, 3-Methyl-2-[4′-(3-methyl-quinolin-2-yloxymethyl)-biphenyl-4-sulfonylamino]-butyric acid] | 200 nM |
| CC(C)[C@@H](NS(=O)(=O)c1ccc(-c2ccc(OC(=O)c3cc4ccccc4o3)cc2)cc1)C(=O)O [Example 7B, Benzofuran-2-carboxylic acid 4′-(1-carboxy-2-methyl-propylsulfamoyl)-biphenyl-4-yl ester] | 345 nM |
| CC(C)[C@@H](NS(=O)(=O)c1ccc(-c2ccc(COc3cccc(C(=O)c4ccccc4)c3)cc2)cc1)C(=O)O [Example 1H] | 230 nM |
